Tests used:
hamster small intestine = test: glucose uptake in small intestine by the organ culture system; conditions: hamster jejunal slices, NaCl + 30 μM Phlorizin, 10 minutes at 37° C.
Procedure: The glucose uptake level was determined by the intestinal organ culture system in accordance with the procedures described in Peptides, 19: 1249-1253, 1998 and J. Agric. Food Chem., 48: 5618-5623, 2000. The carotid was cut in mice, rats, guinea pigs and hamsters under ether anesthesia to put them to death. The jejunal region was excised, mesenteric fats were removed, the tract was dissected and the contents were washed and cut in 1 cm length. The jejunal slices were washed 3 times with a buffer solution (125 mM N-Methyl-D-Glucamine (NMDG), 1.2 mM KH2PO4, 2.5 mM CaCl2, 1.2 mM MgSO4, 4 mM Glutamine, 10 mM HEPES (pH 7.2), 0.1 mg/ml BSA) and then transferred to a 48-well plate by one slice/well. […]. The jejunal slices were transferred to a mini-vial for liquid scintillation counting. After 500 μl of tissue solubilizer Solvable (Perkin Elmer LifeSciences) was added thereto, the mixture was treated at 50° C. for 2 hours to solubilize the tissues. After 5 ml of liquid scintillator Ultima Gold-XR (Perkin Elmer LifeSciences) was added, ^14C and ^3H taken up into the jejunal slices were counted. […]

[1] = biological target: T1, mouse SGLT homolog (mSGLTh) (Mus musculus, UniProt Q8VDT1); test: α-methyl glucose uptake in CHO cells expressing mSGLTh; type: cell-based; conditions: for Uptake of α-Methyl Glucose (% based on Control Group): mSGLTh CHO cells, control = NMDG without NaCl
T1 construct: expressed in transfected cells; host or cells: CHO cells
T1 sequence (Q8VDT1 8-685 limits assumed): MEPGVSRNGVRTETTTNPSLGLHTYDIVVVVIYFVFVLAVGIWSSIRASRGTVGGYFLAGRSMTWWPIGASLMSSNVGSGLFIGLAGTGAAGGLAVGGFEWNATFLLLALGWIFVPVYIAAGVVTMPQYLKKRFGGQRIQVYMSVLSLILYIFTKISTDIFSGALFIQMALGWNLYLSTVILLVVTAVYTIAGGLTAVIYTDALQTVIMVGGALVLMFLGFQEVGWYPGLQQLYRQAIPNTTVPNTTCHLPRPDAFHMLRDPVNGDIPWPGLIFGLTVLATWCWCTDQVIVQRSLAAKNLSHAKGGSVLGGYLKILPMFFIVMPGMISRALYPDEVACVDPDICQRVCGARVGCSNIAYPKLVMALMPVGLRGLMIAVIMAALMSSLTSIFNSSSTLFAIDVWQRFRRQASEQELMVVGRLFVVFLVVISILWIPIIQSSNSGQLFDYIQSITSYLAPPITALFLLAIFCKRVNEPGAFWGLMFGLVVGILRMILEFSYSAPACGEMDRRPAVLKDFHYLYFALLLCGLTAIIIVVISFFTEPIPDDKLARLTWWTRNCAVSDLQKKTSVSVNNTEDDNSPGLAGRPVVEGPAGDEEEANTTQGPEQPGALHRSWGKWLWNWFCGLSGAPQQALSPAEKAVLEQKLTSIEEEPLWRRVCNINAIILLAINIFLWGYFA
Procedure: In accordance with the procedures described in Example 4 of WO 02/53738, the CHO cell lines expressing the human SGLT homolog (hSGLTh), mouse SGLT homolog (mSGLTh), rat SGLT homolog (rSGLTh), human SGLT1 (hSGLT1) and human SGLT2 (hSGLT2) were prepared, respectively, and used for experiments. The experimental uptake of α-methyl glucose, which is a glucose analog selectively taken up into the cells by SGLT, was carried out according to the method described in Am. J. Physiol., 270: G833-G843, 1996 and J. Clin. Invest., 93: 397-404, 1994. The cells were plated on 100 μl of DMEM containing 10% FBS charged in a 96-well plate in a cell density of 1×10^5 cells/well, followed by culturing overnight at 37° C. The cells were washed 3 times with 150 μl of a buffer solution (125 mM N-Methyl-D-Glucamine, 1.2 mM KH2PO4, 2.5 mM CaCl2, 1.2 mM MgSO4, 4 mM Glutamine, 10 mM HEPES (pH 7.2), 0.1 mg/ml BSA) and cultured for an hour in the same buffer solution to remove the remaining glucose. The buffer solution was removed and replaced with 90 μl of the same buffer solution or the buffer solution containing NaCl or NaCl+Phlorizin (Sigma) in place of N-Methyl-D-Glucamine (NMDG). After one-hour incubation with 10 μl of 1 mM α-methyl glucose (containing 0.02 μCi of [^14C]-α-Methyl Glucose (Amersham Pharmacia Biotech)) per well, the cells were washed 3 times with 200 μl of chilled PBS buffer. The radioactivity of ^14C taken up into the cells was counted with 100 μl of a liquid scintillator added per well.

## O=C(CCc1ccc(O)cc1)c1c(O)cc(O)cc1O[C@@H]1O[C@H](CO)[C@@H](O)[C@H](O)[C@H]1O [phlorizin]
Hamster small intestine
  SGLT activity (α-methyl glucose uptake) resistance to phloridzin: strongly resistant
[1]; NaCl + 15 μM phlorizin
  Uptake of α-Methyl Glucose (% based on Control Group): 521 ± 35%
[1]; NaCl + 500 μM
  Uptake of α-Methyl Glucose (% based on Control Group): 78 ± 8%
[1]; mouse SGLT homolog compared with SGLT1 and SGLT2
  resistance to phlorizin: more potent than in SGLT1 and SGLT2

— patent US20060063711A1, “Use of sglt homolog” (priority 2002, published 2006)
